Assay results published in ChEMBL document CHEMBL2029218, “Structure-based design of novel class II c-Met inhibitors: 2. SAR and kinase selectivity profiles of the pyrazolone series” (J Med Chem, 2012).

What was measured:
[1] = target: Insulin-like growth factor 1 receptor (Homo sapiens, UniProt P08069); assay: Inhibition of IGF1R by HTRF assay
[2] = target: Ribosomal protein S6 kinase beta-1 (Homo sapiens, UniProt P23443); assay: Inhibition of p70S6K
[3] = target: Tyrosine-protein kinase JAK3 (Homo sapiens, UniProt P52333); assay: Inhibition of JAK3
[4] = target: Ribosomal protein S6 kinase alpha-5 (Homo sapiens, UniProt O75582); assay: Inhibition of MSK1
[5] = target: Mast/stem cell growth factor receptor Kit (Homo sapiens, UniProt P10721); assay: Inhibition of c-KIT
[6] = target: Mitogen-activated protein kinase 3 (Homo sapiens, UniProt P27361); assay: Inhibition of ERK1
Sequence of Mitogen-activated protein kinase 3 (P27361 whole entry): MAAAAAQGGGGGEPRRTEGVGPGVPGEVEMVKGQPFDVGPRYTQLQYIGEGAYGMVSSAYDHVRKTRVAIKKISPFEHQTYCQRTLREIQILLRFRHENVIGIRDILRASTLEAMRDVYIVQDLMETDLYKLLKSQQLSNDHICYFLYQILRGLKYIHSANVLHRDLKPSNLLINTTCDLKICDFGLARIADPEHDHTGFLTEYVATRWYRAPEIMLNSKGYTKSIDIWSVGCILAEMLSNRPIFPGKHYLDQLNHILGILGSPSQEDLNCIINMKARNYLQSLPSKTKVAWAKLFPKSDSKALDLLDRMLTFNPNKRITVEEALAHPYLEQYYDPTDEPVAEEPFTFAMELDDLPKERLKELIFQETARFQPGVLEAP

[7] = target: RAC-beta serine/threonine-protein kinase (Homo sapiens, UniProt P31751); assay: Inhibition of PKBbeta
[8] = target: Mitogen-activated protein kinase 14 (Homo sapiens, UniProt Q16539); assay: Inhibition of p38alpha
Sequence of Mitogen-activated protein kinase 14 (Q16539 whole entry): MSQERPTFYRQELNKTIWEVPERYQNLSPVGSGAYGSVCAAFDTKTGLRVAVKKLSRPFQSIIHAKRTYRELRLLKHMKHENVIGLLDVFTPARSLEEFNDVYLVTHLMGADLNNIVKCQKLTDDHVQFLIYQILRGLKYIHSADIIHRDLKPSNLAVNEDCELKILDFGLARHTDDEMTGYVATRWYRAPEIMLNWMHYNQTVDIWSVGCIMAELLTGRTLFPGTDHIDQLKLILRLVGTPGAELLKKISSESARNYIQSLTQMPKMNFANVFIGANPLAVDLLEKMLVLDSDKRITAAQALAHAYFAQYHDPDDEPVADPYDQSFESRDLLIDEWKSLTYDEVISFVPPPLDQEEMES

Angiopoietin-1 receptor = Angiopoietin-1 receptor (Homo sapiens, UniProt Q02763); assay: Inhibition of TIE2
[9] = target: Serine/threonine-protein kinase pim-2 (Homo sapiens, UniProt Q9P1W9); assay: Inhibition of PIM2
Sequence of Serine/threonine-protein kinase pim-2 (Q9P1W9 whole entry): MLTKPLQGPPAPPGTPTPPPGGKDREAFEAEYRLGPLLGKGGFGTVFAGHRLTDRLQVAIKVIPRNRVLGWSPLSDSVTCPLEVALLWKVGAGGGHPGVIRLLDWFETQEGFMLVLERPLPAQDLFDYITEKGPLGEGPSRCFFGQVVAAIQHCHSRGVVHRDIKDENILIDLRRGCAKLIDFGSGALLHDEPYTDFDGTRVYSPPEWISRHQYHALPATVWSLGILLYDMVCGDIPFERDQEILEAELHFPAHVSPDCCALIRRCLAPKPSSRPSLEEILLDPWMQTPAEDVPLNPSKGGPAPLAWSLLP

Aurora kinase A = Aurora kinase A (Homo sapiens, UniProt O14965); assay: Inhibition of aurora-1
[10] = target: Tyrosine-protein kinase JAK1 (Homo sapiens, UniProt P23458); assay: Inhibition of JAK1
[11] = target: RAC-alpha serine/threonine-protein kinase (Homo sapiens, UniProt P31749); assay: Inhibition of PKBalpha
[12] = target: Fibroblast growth factor receptor 1 (Homo sapiens, UniProt P11362); assay: Inhibition of FGFRK
[13] = target: Tyrosine-protein kinase JAK2 (Homo sapiens, UniProt O60674); assay: Inhibition of JAK2
Sequence of Tyrosine-protein kinase JAK2 (O60674 whole entry): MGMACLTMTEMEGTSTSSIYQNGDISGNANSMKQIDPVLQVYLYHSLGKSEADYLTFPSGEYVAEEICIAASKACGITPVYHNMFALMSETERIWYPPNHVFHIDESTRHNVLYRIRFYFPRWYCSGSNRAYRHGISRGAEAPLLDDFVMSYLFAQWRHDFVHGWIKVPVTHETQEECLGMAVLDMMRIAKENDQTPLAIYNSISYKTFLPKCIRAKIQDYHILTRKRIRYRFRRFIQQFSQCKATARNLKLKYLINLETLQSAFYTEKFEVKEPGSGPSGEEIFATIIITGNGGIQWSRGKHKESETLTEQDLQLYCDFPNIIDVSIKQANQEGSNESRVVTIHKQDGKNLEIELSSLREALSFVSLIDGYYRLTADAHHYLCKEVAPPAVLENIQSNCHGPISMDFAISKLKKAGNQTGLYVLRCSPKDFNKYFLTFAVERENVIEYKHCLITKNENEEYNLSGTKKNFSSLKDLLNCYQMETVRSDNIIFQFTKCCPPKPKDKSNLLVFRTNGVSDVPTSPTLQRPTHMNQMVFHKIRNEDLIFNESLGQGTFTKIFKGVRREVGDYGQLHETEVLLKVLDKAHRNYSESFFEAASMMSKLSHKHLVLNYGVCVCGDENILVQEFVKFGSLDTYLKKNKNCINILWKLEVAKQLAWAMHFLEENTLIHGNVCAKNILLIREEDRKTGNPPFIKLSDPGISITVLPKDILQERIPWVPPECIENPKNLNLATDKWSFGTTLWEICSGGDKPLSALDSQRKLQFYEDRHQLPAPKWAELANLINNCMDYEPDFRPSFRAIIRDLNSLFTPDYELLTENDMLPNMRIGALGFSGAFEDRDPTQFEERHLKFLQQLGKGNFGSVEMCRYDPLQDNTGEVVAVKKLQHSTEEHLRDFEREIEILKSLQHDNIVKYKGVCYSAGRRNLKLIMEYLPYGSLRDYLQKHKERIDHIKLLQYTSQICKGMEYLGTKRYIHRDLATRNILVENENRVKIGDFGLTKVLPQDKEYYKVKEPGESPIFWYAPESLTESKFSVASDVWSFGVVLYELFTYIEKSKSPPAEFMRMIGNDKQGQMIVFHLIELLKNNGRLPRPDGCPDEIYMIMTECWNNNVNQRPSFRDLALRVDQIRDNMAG

[14] = target: Serine/threonine-protein kinase pim-1 (Homo sapiens, UniProt P11309); assay: Inhibition of PIM1
[15] = target: Vascular endothelial growth factor receptor 2 (Homo sapiens, UniProt P35968); assay: Inhibition of VEGFR2 by HTRF assay
Sequence of Vascular endothelial growth factor receptor 2 (P35968 whole entry): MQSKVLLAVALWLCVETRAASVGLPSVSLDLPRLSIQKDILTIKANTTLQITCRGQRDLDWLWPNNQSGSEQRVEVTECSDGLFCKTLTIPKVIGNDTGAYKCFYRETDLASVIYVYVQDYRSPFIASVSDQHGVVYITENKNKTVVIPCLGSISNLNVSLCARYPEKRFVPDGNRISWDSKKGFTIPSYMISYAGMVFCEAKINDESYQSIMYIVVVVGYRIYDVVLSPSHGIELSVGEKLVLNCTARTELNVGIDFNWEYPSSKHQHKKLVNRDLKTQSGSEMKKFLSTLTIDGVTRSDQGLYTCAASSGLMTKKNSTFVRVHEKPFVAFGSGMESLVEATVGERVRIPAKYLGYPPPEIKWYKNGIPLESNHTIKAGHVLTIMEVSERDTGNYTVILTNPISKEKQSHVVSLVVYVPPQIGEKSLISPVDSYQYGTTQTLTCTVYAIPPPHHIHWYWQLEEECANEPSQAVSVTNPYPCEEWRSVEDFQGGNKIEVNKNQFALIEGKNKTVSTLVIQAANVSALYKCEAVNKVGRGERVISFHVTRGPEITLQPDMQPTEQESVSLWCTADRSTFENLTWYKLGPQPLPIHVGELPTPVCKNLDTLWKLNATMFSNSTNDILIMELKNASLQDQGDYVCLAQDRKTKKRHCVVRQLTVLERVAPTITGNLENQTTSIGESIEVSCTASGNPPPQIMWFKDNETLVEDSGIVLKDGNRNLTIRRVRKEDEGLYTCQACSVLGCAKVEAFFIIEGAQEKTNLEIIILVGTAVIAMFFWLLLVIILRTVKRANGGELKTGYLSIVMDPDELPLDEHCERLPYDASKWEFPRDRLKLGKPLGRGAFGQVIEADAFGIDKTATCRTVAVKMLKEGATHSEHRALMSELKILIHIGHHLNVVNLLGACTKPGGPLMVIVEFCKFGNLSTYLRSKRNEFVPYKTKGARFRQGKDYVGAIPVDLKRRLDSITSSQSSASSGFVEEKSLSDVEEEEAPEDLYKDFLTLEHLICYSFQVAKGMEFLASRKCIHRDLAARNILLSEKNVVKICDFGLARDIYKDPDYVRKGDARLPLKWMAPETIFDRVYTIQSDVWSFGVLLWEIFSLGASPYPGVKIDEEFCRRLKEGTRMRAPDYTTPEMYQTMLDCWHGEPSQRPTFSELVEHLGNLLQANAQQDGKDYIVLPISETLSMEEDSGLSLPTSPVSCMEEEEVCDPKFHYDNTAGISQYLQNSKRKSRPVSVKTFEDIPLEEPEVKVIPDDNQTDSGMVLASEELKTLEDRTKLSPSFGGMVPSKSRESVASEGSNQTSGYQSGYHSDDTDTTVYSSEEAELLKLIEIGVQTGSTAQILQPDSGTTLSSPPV

[16] = target: Hepatocyte growth factor receptor (Homo sapiens, UniProt P08581)
Description: Inhibition of c-Met by HTRF assay

Sequence of Insulin-like growth factor 1 receptor (P08069 31-736 limits assumed): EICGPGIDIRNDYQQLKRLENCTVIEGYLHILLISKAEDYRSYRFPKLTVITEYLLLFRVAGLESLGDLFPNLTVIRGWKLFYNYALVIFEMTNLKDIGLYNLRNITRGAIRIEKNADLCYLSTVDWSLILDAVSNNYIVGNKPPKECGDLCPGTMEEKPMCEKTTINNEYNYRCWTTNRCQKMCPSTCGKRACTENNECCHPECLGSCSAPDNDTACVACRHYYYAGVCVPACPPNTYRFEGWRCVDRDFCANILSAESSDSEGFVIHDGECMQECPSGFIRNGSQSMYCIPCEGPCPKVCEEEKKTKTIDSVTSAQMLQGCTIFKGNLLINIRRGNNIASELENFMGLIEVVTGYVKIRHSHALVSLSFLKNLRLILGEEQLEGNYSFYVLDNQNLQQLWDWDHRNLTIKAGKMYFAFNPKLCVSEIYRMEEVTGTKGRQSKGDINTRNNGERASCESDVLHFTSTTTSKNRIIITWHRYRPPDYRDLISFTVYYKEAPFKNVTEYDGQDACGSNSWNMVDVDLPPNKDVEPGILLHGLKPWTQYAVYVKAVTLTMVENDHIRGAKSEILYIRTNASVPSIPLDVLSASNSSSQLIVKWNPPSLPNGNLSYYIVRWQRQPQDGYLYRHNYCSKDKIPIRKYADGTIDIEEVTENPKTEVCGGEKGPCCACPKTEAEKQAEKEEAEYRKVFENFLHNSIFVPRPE
Sequence of Insulin-like growth factor 1 receptor (P08069 741-1367 limits assumed): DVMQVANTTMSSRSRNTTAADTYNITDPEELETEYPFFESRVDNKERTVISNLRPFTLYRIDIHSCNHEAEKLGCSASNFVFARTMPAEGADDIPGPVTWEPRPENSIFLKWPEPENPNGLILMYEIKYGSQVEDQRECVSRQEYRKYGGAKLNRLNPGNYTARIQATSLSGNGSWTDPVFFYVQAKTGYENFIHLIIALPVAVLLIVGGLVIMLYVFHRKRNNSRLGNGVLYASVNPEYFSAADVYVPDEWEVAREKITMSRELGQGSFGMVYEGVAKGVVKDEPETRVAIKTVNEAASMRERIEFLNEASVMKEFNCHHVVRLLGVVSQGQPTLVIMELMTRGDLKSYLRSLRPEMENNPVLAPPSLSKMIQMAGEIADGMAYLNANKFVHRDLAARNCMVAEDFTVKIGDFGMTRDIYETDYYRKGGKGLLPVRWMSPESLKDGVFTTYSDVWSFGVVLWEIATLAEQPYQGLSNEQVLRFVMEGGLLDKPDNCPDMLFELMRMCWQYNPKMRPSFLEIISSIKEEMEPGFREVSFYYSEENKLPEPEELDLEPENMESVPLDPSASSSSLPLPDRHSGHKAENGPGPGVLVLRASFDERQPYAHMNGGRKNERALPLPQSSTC

Row | SMILES | Ki [1] [nM] | Ki [15] [nM] | other results
1 | CC[C@H](O)Cn1c(C)c(C(=O)Nc2ccc(Oc3ccnc4cc(OC)ccc34)c(F)c2)c(=O)n1-c1ccccc1 | 575 | – | –
2 | COc1cc2nccc(Oc3ccc(NC(=O)c4c(C)n(C)n(-c5ccccc5)c4=O)cc3F)c2cc1OC | – | – | IC50 [2]: 1000 nM; IC50 [3]: 10 µM; IC50 [4]: 10 µM; IC50 [5]: 100 nM; IC50 [6]: 25 µM; IC50 [7]: 25 µM; IC50 [8]: 1000 nM; IC50 (Angiopoietin-1 receptor): 100 nM; IC50 [9]: 25 µM; IC50 (Aurora kinase A): 1000 nM; IC50 [10]: 10 µM; IC50 [11]: 10 µM; IC50 [12]: 1000 nM; IC50 [13]: 1000 nM; IC50 [14]: 25 µM
3 | COc1cc2nccc(Oc3ccc(NC(=O)c4c(C)n(C)n(-c5ccccc5)c4=O)cc3F)c2cc1Br | 149 | 78.9 | –
4 | COc1cc2nccc(Oc3ccc(NC(=O)c4c(C)n(C)n(-c5ccccc5)c4=O)cc3F)c2cc1C | 146 | – | –
5 | CCc1cc2c(Oc3ccc(NC(=O)c4c(C)n(C)n(-c5ccccc5)c4=O)cc3F)ccnc2cc1OC | 70.2 | – | –
6 | COc1cc2nccc(Oc3ccc(NC(=O)c4c(C)n(C)n(-c5ccccc5)c4=O)cn3)c2cc1OC | 1570 | – | –
7 | COc1cc2nccc(Oc3ccc(NC(=O)c4c(C)n(C)n(-c5ccccc5)c4=O)c(Cl)c3)c2cc1OC | 26.5 | 35.9 | –
8 | COc1ccc2c(Oc3ccc(NC(=O)c4c(C)n(C)n(-c5ccccc5)c4=O)c(OC)c3)ccnc2c1 | 93.6 | 702 | –
9 | COc1cc2nccc(Oc3ccc(NC(=O)c4c(C)n(C)n(-c5ccccc5)c4=O)nc3)c2cc1OC | 233 | – | –
10 | COc1ccc2c(Oc3ccc(NC(=O)c4c(C)n(C)n(-c5ccccc5)c4=O)nc3)ccnc2c1 | 618 | – | –
11 | COc1ccc2c(Oc3cnc(NC(=O)c4c(C)n(C)n(-c5ccccc5)c4=O)nc3)ccnc2c1 | 217 | 1630 | Ki [16]: 16.7 nM
12 | COc1ccc2c(Oc3ccc(NC(=O)c4c(CN)n(C)n(-c5ccccc5)c4=O)cc3F)ccnc2c1 | 928 | 541 | –
13 | COc1ccc2c(Oc3ccc(NC(=O)c4c(CNC(=O)OC(C)(C)C)n(C)n(-c5ccccc5)c4=O)cc3F)ccnc2c1 | > 6600 | – | –
14 | CCN(C)Cc1c(C(=O)Nc2ccc(Oc3ccnc4cc(OC)ccc34)c(F)c2)c(=O)n(-c2ccccc2)n1C | 744 | – | –
15 | COc1ccc2c(Oc3ccc(NC(=O)c4c(CN5CCCC5)n(C)n(-c5ccccc5)c4=O)cc3F)ccnc2c1 | 1800 | – | –
16 | COc1ccc2c(Oc3ccc(NC(=O)c4c(CN5CCCC5)n(C)n(-c5ccccc5)c4=O)nc3)ccnc2c1 | 887 | – | –
17 | COc1ccc2c(Oc3ccc(NC(=O)c4c(C(C)(C)N)n(C)n(-c5ccccc5)c4=O)cc3F)ccnc2c1 | 3100 | – | –
18 | COc1ccc2c(Oc3ccc(NC(=O)c4c([C@@H]5CCCN5)n(C)n(-c5ccccc5)c4=O)cc3F)ccnc2c1 | 680 | 2240 | –
19 | COc1ccc2c(Oc3ccc(NC(=O)c4c([C@@H]5CCCN5)n(C)n(-c5ccccc5)c4=O)nc3)ccnc2c1 | 948 | > 6600 | –
20 | COc1ccc2c(Oc3ccc(NC(=O)c4c(C5CCOCC5)n(C)n(-c5ccccc5)c4=O)cc3F)ccnc2c1 | 144 | – | –
21 | COc1ccc2c(Oc3ccc(NC(=O)c4c(C5CCOCC5)n(C)n(-c5ccccc5)c4=O)nc3)ccnc2c1 | 42.7 | 2720 | –
22 | COc1ccc2c(Oc3ccc(NC(=O)c4c(-c5ccncc5)n(C)n(-c5ccccc5)c4=O)nc3)ccnc2c1 | 35.9 | > 6600 | –
23 | COc1ccc2c(Oc3ccc(NC(=O)c4c(-c5ccccn5)n(C)n(-c5ccccc5)c4=O)nc3)ccnc2c1 | 18.5 | 1380 | –
24 | COc1ccc2c(Oc3ccc(NC(=O)c4c(-c5cccnc5)n(C)n(-c5ccccc5)c4=O)nc3)ccnc2c1 | 27 | 2830 | –
